# Results published in article PMC9706920, “Aryloxypropanolamine targets amyloid aggregates and reverses Alzheimer-like phenotypes in Alzheimer mouse models” (Alzheimer's Research & Therapy, 2022).
# Assays:
# CYP 3A4 = biological target: T1, CYP 3A4 (Homo sapiens, UniProt P08684); assay: CYP450 inhibition assay, 3A4; format: in vitro ADME; conditions: YIAD002 10 μM, human liver microsomes; weak or no inhibition; read-out: CYP 3A4 inhibition, IC50 (inhibition criteria)
# T1 construct: contained human liver microsomes (0.25 mg/ml); from tissue; host or cells: human liver microsomes
# Procedure: (§1) Incubation mixtures for Cytochrome P450s (CYPs) inhibition assay contained human liver microsomes (0.25 mg/ml), 0.1 M phosphate buffer (pH 7.4), 10 μM of YIAD002, and an enzyme substrate cocktail (phenacetin 50 μM, diclofenac 10 μM, S-mephenytoin 100 μM, dextromethorphan 5 μM, and midazolam 2.5 μM). The mixture was pre-incubated at 37°C for 5 min and 1 mM NAPDH was added to initiate reactions. After 15 min of incubation, acetonitrile with terfenadine was added to stop reactions and microsomal solutions were centrifuged at 14,000 rpm at 4°C for 5 min. For LC-MS/MS analysis, supernatants were injected on a Kinetex C18 column (2.1 × 100 mm, 2.6 μm particle size, Phenomenex, USA). The composition of the mobile phase was 0.1% formic acid in water (A) and 0.1% formic acid in acetonitrile (B).
# [1] = Observation of adverse effects in the current studies
# CYP 2C9 = biological target: T2, CYP 2C9 (Homo sapiens, UniProt P11712); assay: CYP450 inhibition assay, 2C9; format: in vitro ADME; conditions: YIAD002 10 μM, human liver microsomes; weak or no inhibition; read-out: CYP 2C9 inhibition, IC50 (inhibition criteria)
# T2 construct: contained human liver microsomes (0.25 mg/ml); from tissue; host or cells: human liver microsomes
# Procedure: as §1
# [2] = Microsomal stability, human; format: in vitro ADME; conditions: 1 μM, 30 min, 37°C
# Procedure: (§2) To evaluate the rate of drug metabolism, we tested YIAD002 stability in liver microsomes of human, rat, and mouse. Microsomal concentration was 0.5 mg/ml in 0.1 M phosphate buffer (pH 7.4). 1 μM of YIAD002 was added to microsome solutions and was prewarmed at 37°C for 5 min. NADPH-regenerating solution was added to microsomes and incubated at 37°C for 30 min. At the end of incubation, acetonitrile with chlorpropamide was added to stop reactions and microsomal solutions were centrifuged at 14,000 rpm at 4°C for 5 min. For LC-MS/MS analysis, supernatants were injected on a Kinetex C18 column (2.1 × 100 mm, 2.6 μm particle size, Phenomenex, USA). The composition of the mobile phase was 0.1% formic acid in water (A) and 0.1% formic acid in acetonitrile (B).
# Plasma stability, human = format: in vitro ADME; conditions: 10 μM, 37°C, vs 0 min
# Procedure: (§3) To assess the plasma stability of YIAD002, YIAD002 stock was dissolved at a concentration of 40 μM in DMSO. 5 μL of YIAD002 stock was added to 195 μL of human plasma or 195 μL of rat plasma and incubated at 37°C for the following time points: 0, 30, and 120 min. At the end of incubation, acetonitrile with chlorpropamide was added to stop reactions. The solutions were centrifuged at 14,000 rpm at 4°C for 5 min and the supernatant was analyzed with LC-MS/MS. High performance liquid chromatography was carried out on a Kinetex C18 column (2.1 × 100 mm, 2.6 μm particle size, Phenomenex, USA). The composition of the mobile phase was 0.1% formic acid in water (A) and 0.1% formic acid in acetonitrile (B).
# [3] = Microsomal stability, rat; format: in vitro ADME; conditions: 1 μM, 30 min, 37°C
# Procedure: as §2
# Plasma stability, rat = format: in vitro ADME; conditions: 10 μM, 37°C, vs 0 min
# Procedure: as §3, with “YIAD002 stock was dissolved at a concentration of 40 μM in DMSO. 5 μL of YIAD002 stock was added to 195 μL of human plasma or 195 μL of” left out
# Aβ(pE3-42) aggregates = biological target: T3, Aβ(pE3-42) aggregates (Homo sapiens, UniProt P05067); assay: ThT fluorescence Aβ(pE3-42) disaggregation assay; format: biochemical; conditions: Fig. 4D
# T3 construct: Aβ(pE3-42), p[…]; made in house; host or cells: chemical synthesis (Fmoc solid phase peptide synthesis)
# Procedure: ThT fluorescence was used to assess the in vitro inhibition of Aβ(1–42) and disaggregation of Aβ(1–42), Aβ(1–40), Aβ(pE3-42), recombinant tau K18, and tau repeats R1, R2, R3, R4 by YIAD compounds. In house synthetic Aβ(1–42) was dissolved in DMSO (1 mM, 100% DMSO) and diluted to 20-fold in deionized water to make 50 μM Aβ(1–42) stocks (5% DMSO). YIAD compounds were first dissolved in DMSO (100 mM, 100% DMSO) and serially diluted with deionized water to make YIAD stocks with concentrations of 1, 10, 100, and 1000 μM (10% DMSO). For the Aβ(1–42) inhibition assay, monomeric Aβ(1–42) stocks and YIAD stocks were co-incubated at 37°C for 3 days. For Aβ(1–42) disaggregation assay, monomeric Aβ(1–42) stocks were preincubated at 37°C for three days to form Aβ(1–42) aggregates, and subsequently, YIAD stocks were added for an additional 3 days. For Aβ(1-40) disaggregation assays, Aβ(1–40) (50 μM, 5% DMSO) was preincubated at 37°C for 3 days to induce aggregation, and co-incubated with YIAD001 and YIAD002 for an additional 3 days. […] Prior to fluorescence intensity measurement, ThT solution (5 μM) was prepared by dissolving ThT, purchased from Sigma-Aldrich (MO, USA) in 50 mM glycine buffer (pH 8.5). To quantify the effect of inhibition and disaggregation, 25 μL of all samples and 75 μL of ThT solution were loaded into a half-area 96-well black plate in triplicate.
# T3 sequence (P05067 674-713): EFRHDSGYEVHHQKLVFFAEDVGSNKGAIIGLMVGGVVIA
# T1 sequence (P08684 whole entry): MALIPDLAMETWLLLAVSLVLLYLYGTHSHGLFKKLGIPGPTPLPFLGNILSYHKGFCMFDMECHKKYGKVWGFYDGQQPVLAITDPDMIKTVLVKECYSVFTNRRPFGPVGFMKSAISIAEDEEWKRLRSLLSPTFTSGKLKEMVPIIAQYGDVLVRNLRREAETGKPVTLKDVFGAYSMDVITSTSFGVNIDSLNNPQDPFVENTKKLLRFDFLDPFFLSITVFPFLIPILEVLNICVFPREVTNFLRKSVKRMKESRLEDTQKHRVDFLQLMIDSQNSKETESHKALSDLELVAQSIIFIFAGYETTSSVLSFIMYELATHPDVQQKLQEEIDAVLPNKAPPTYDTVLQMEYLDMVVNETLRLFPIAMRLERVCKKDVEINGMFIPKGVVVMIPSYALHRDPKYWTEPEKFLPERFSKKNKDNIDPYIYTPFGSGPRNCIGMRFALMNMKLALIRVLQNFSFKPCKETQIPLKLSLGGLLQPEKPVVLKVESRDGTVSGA
# T2 sequence (P11712 whole entry): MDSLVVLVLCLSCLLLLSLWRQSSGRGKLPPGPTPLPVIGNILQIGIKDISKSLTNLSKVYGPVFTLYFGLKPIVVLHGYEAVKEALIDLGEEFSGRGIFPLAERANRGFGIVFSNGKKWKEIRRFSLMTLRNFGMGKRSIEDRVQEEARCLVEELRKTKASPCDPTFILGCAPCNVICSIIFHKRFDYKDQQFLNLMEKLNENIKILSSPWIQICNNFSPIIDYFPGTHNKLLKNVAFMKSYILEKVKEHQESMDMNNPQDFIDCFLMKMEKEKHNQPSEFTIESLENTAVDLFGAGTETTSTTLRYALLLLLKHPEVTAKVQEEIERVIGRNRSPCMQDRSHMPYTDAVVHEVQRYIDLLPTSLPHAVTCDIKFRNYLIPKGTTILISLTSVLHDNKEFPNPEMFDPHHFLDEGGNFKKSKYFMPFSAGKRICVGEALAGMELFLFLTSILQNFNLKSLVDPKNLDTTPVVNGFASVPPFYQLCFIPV
smiles,measurement,setting,value
"CCC(C)(C)c1ccc(OCC(O)CN2CCCC2)c(C(C)(C)CC)c1.Cl (stereo not shown) [YIAD002, 1-(3-(2,4-Di-tert-pentylphenoxy)-2-hydroxypropyl)pyrrolidin-1-ium chloride]",IC50,CYP 3A4,> 10 µM
same,Adverse effects of toxicity,[1],not observed
same,IC50,CYP 2C9,> 10 µM
same,Remaining compound in human microsomes,[2],55.5%
same,Compound remaining in human plasma,"Plasma stability, human; 30 min",96.3%
same,Compound remaining in human plasma,"Plasma stability, human; 120 min",92.6%
same,Remaining compound in rat microsomes,[3],11.2%
same,Compound remaining in rat plasma,"Plasma stability, rat; 30 min",94.5%
same,Compound remaining in rat plasma,"Plasma stability, rat; 120 min",87.7%
same,Dissociative activity against Aβ(pE3-42) aggregates,Aβ(pE3-42) aggregates,dissociative activity
